# Reference: patent US20160002310A1, “MODIFIED INGAP PEPTIDES FOR TREATING DIABETES” (THE ROYAL INSTITUTE FOR THE ADVANCEMENT OF LEARNING/MCGILL …, priority 2013, published 2016)
# Entries after “also recorded” stand apart in the source; their conditions may differ. Positions of bridges follow the written chain, without caps; N, C: chain ends. Residues, ends and D or L forms follow the SMILES beside them. No end group written: not given here.
# Key:
# Erk½ = experiment: Effect of pharmacological inhibitors on INGAP-induced Erk½ phosphorylation in RIN-m5F cells; type: cell-based, rat; conditions: for Effect of inhibitor on INGAP-induced Erk½ phosphorylation: inhibitor pretreatment, 10 min growth factor
# Procedure: 1×10^6 cells were plated in 60 mm plates for 48 hours followed by a 24-h starvation in serum-free medium. Prior to addition of growth factors, cells were pretreated for 30-40 min with the indicated inhibitors, except for Pertussis Toxin (Ptx)(24 h pretreatment). After a 10 min treatment with growth factors, cells were placed on ice and lysed, as described in the Experimental Procedures. Blots (30 μg of proteins) were incubated with Phospho-Erk½ antibody (or with total Erk antibody after stripping) and developed using ECL reagent. Quantification of Erk phosphorylation relative to total Erk and time 0 min control (=1, shown as a dotted line) was performed as described above. (A): Inhibitors of GPCR (Ptx, 100 ng/m1), adenylate cyclase (SQ22536, 250 μM) and PKA (PKi, 100nM; H89, 1μM). (B): inhibitors of PKC (Bis, 1 μM), PI3K (Wm, 100 nM), Src(PP2, 100nM), EGFR(AG1478, 100nM) and Raf Inhibitor l(R-1, 100nM), or DMSO as a solvent (*: p<0.05).
# (§1) To investigate signaling events implicated in INGAP induced proliferation, we employed specific pharmacological inhibitors of Raf (Raf inhibitor 1), PI3 K (wortmannin), PKC (Bis), PKA (H89, PKi), Adenylate cyclase (SQ22536), Src (PP2) and EGFR (AG1478). In addition, Pertussis toxin (Ptx) was used to examine whether INGAP actions were mediated by a GPCR. Effectiveness of these inhibitors was judged by Erk½ phosphorylation after 10 min of treatment with INGAP or EGF or Ex-4, and by BrdU incorporation after 24 h.
# RIN-m5F cells [1] = experiment: Effect of pharmacological inhibitors on INGAP-induced BrdU incorporation in RIN-m5F cells; type: cell-based, rat; conditions: inhibitor pretreatment, 24 h
# Procedure: Cells were plated in chamber slides and subjected to 30−40 min pretreatment with the indicated inhibitors prior to the addition of growth factors and incubated for 24 h. […] BrdU was added for the last three hours of treatment followed by fixation in Methanol and immunostaining for BrdU. Data are presented as a ratio of BrdU(+) cells (%) in treated versus untreated control. Results are means±S.E. of three independent experiments (*: p<0.05, †: p<0.001).
# as §1
# [2] = test system: STZ (streptozotocin)-induced diabetes; design: species or system mice; conditions: mouse, in vivo, ip
# Procedure: In this part of the study, we used a well established model of STZ (streptozotocin)-induced diabetes, resulting in a substantial destruction of beta cell mass. Previous studies conducted in our lab have shown islet neogenic effects of INGAP-peptide (15 L) and INGAP protein after the 8-week administration daily.
# Referring to FIG. 42, C57BL/6 J mice (Charles River) 20-25 g, were rendered diabetic by a single injection of 150 mg/kg of STZ. The animals with blood glycemias of 15-30 mM after 7 days were used for the experiment. At 7 days, mice were randomized into 5 groups, 10 mice per group, equal representation of each glycemia level, (average glycemia per group being 24.4+0.0167 mM) and were treated with […] of one of the analogs, IP, daily for 10 weeks. Blood glycemia values were taken weekly from the tip of the tail (fasting and/or non-fasting). The weight of animals was also taken weekly.
# After 10 weeks of treatment, the animals were sacrificed and the pancreata were weighed and processed for RNA extraction (still ongoing) and Immunocytochemistry.
# [3] = Peptide stability in RPMI-1640 medium with 25% FBS, HPLC; type: in vitro ADME; conditions: for Comparative peptide stability in FBS: 50 μM peptide; for half-life at 50 μM: bovine
# Procedure: (§2) 50 μM peptides were incubated in RPMI-1640 medium with 25% FBS for the times indicated. Following ethanol precipitation of serum proteins, samples were analyzed by HPLC. To compare dynamics of peptide degradation HPLC profiles were superimposed as shown.
# (§3) 50 μM INGAP-PC and INGAP 19C were incubated in RPMI-1640 medium with 25% FBS for the times indicated. Following ethanol precipitation of serum proteins, samples were analyzed by HPLC. To compare dynamics of peptide degradation, HPLC profiles were superimposed as shown.
# as §2, with “Degradation profiles of INGAP-P and INGAP-19 peptides in presence of serum were determined (FIG. 20). 50” for “50”
# as §3, with “Time-course studies of in vitro incubation of INGAP-PC and INGAP-19C peptides in FBS were also performed (FIG. 21). 50” for “50”
# [4] = Stability of 5-FAM labeled INGAP analogs in serum and pancreas of non-diabetic mice after IP injection; type: in vivo; conditions: 500 mg/mouse IP, 10 min to 2 h
# Procedure: Prior to the start of the STZ experiments, we tested the stability of INGAP analogs in the serum of non-diabetic mice by injecting 5-FAM labeled INGAP analogs (custom made at Canpeptide, Pointe Claire) at […] IP . The analogs were FAM labeled to determine the post-injection time needed for the peptides to reach the pancreas and to potentially identify the target cells. Mice were sacrificed after 10 min, 30 min, 1 h and 2 h (three mice per group) and blood and tissue samples were collected for processing. Blood serum was precipitated with methanol (1:3) to remove serum proteins and the resulting supernatant was analyzed by HPLC to detect presence of INGAP peptides.
# These experiments need to be repeated by using cryosections vs paraffin section to minimize a potential loss of the fluorescence.
# Akt = Akt phosphorylation in RIN-m5F cells; type: cell-based, rat; conditions: time course
# RIN-m5F cells [5] = experiment: BrdU incorporation (proliferation) in RIN-m5F cells, 24 h; type: cell-based, rat; conditions: positive control
# Procedure: (A): INGAP increased BrdU incorporation. RIN-m5F cells were treated with indicated amounts of INGAP-P or r-INGAP for 24 h in chamber slides. Exendin 4 (Ex4) and EGF were used as controls. 50 μM BrdU was added for the last three hours of treatment followed by fixation in methanol and immunostaining for BrdU. Data are presented as a ratio of BrdU(+) cells (%) in INGAP-treated to untreated control. Results are means±S.E. of three independent experiments (*: p<0.05, §: p<0.001, compared to untreated control). (B): INGAP induced phosphorylation of Erk½ in RIN-m5F. RIN-m5F cells (1×10^6) plated in 60 mm tissue culture plates were treated with INGAP for the times indicated. Blots (30 μg protein) were probed with anti-Erk½-Phospho (Thr202/Tyr204) antibody, followed by stripping/reprobing with anti-total Erk½ antibody (Cell Signaling) and quantified by densitometry, using ImageJ software. (C): Quantification of relative Erk½ phosphorylation measured as a ratio of Phospho-Erk½ to total Erk½ and shown as a Fold Change relative to the 0 min time point. […]
# Cells plated in 8-well or 4-well chamber slides (5×10^4 or 1×10^5 cells per well) were treated for 24 h with INGAP, EGF or Ex 4, as described above, and 50 μM BrdU was added during the last 3 hours of treatment. […] BrdU-positive and negative nuclei were counted (total 200 per well) and the percentage of BrdU-positive nuclei was calculated (FIG. 36).
compound,measurement,setting,value
COc1cc2ncnc(Nc3cccc(Cl)c3)c2cc1OC [AG1478],Effect of inhibitor on INGAP-induced Erk½ phosphorylation,Erk½,not affected
O=S(=O)(NCCNC/C=C/c1ccc(Br)cc1)c1cccc2cnccc12 [H89],Effect of inhibitor on BrdU incorporation induced by growth factors,RIN-m5F cells [1],reduced BrdU incorporation in rINGAP treated cells
CC[C@H](C)[C@@H]1NC(=O)[C@H](Cc2c[nH]c3ccccc23)NC(=O)[C@H]([C@@H](C)CC)NC(=O)[C@@H](N)CSSC[C@@H](C(=O)O)NC(=O)[C@H](Cc2c[nH]c3ccccc23)NC(=O)CNC(=O)[C@H](CO)NC(=O)CNC(=O)[C@H](CC(N)=O)NC(=O)[C@@H]2CCCN2C(=O)[C@H](CC(C)C)NC(=O)[C@H]([C@@H](C)O)NC(=O)CNC(=O)[C@H](Cc2c[nH]cn2)NC(=O)[C@H](CO)NC(=O)[C@@H]2CCCN2C(=O)[C@H](CC(=O)O)NC(=O)[C@H](Cc2c[nH]cn2)NC(=O)[C@H](CC(C)C)NC(=O)CNC1=O [INGAP-19C] (H-CIWIGLHDPSHGTLPNGSGWC-OH; disulfide 1-21),Losses of animals in group,[2],1
same,Comparative peptide stability in FBS,[3]; RPMI-1640 with 25% FBS,highest stability; also recorded: more stable than linear 15-mer (INGAP-P) or 19-mer (INGAP-19) peptides
same,Degradation in presence of serum,"[3]; 48 h, 50 μM, RPMI-1640 with 25% FBS",no degradation
same,Time stable in culture medium,"[3]; culture medium, preliminary HPLC data",up to 48 h
same,Presence of peptide in blood serum after injection (HPLC),[4],still detectable at 2 h
"CC[C@H](C)[C@@H]1NC(=O)[C@@H](N)CSSC[C@@H](C(=O)O)NC(=O)[C@H](CO)NC(=O)CNC(=O)[C@H](CC(N)=O)NC(=O)[C@@H]2CCCN2C(=O)[C@H](CC(C)C)NC(=O)[C@H]([C@@H](C)O)NC(=O)CNC(=O)[C@H](Cc2c[nH]cn2)NC(=O)[C@H](CO)NC(=O)[C@@H]2CCCN2C(=O)[C@H](CC(=O)O)NC(=O)[C@H](Cc2c[nH]cn2)NC(=O)[C@H](CC(C)C)NC(=O)CNC1=O [INGAP-PC, N′-CIGLHDPSHGTLPNGSC-C′] (H-CIGLHDPSHGTLPNGSC-OH; disulfide 1-17)",Losses of animals in group,[2],no losses
same,half-life,"[3]; buffer, culture medium, preliminary HPLC data",4 to 6 h
COc1cccc(-c2cc(=O)c3ccccc3o2)c1N [PD98059],Effect of inhibitor on BrdU incorporation induced by growth factors,RIN-m5F cells [1],inhibition
same,Effect of inhibitor on INGAP-induced Erk½ phosphorylation,Erk½,inhibition
CC(C)(C)n1nc(-c2ccc(Cl)cc2)c2c(N)ncnc21 [PP2],Effect of inhibitor on BrdU incorporation induced by growth factors,RIN-m5F cells [1],"inhibited both Erk½ phosphorylation (FIG. 8B) and proliferation (FIG. 16) stimulated by r-INGAP, but not by INGAP-P"
same,Effect of inhibitor on INGAP-induced Erk½ phosphorylation,Erk½,"inhibited both Erk½ phosphorylation (FIG. 8B) and proliferation (FIG. 16) stimulated by r-INGAP, but not by INGAP-P"
Nc1ncnc2c1ncn2C1CCCO1 (stereo not drawn) [SQ22536],Effect of inhibitor on INGAP-induced Erk½ phosphorylation,Erk½,slightly increased it
"EGF: positive control growth factor, signals through a classical RTK pathway",Akt phosphorylation,Akt,early activation of Akt
same,"BrdU incorporation, increase compared to negative control",RIN-m5F cells [5]; 10 ng/ml,1.49 ×
Exendin 4,Akt phosphorylation,Akt,strongest activation of Akt
same,"BrdU incorporation, increase compared to negative control",RIN-m5F cells [5]; 10 nM,1.56 ×
"IGLHDPSHGTLPNGS [INGAP-P, N′-IGLHDPSHGTLPNGS-C′]",Comparative peptide stability in FBS,[3]; RPMI-1640 with 25% FBS,degraded at a similar rate
same,half-life at 50 μM,"[3]; culture medium (RPMI-1640) with 25% fetal bovine serum, culture medium, preliminary HPLC data",4 to 6 h
"IWIGLHDPSHGTLPNGSGW [INGAP-19, N′-IWIGLHDPSHGTLPNGSGW-C′]",Comparative peptide stability in FBS,[3]; RPMI-1640 with 25% FBS,no advantage of INGAP-19 over INGAP-P
same,half-life at 50 μM,"[3]; fetal bovine serum (25%) in RPMI-1640 culture medium, culture medium, preliminary HPLC data",4 to 6 h
same,Presence of peptide in blood serum after injection (HPLC),[4],undetectable at 1 h
Pertussis toxin [Ptx],Inhibition of INGAP-induced activation of Erk½,"Erk½; 24 h exposure to inhibitor, 10 min INGAP",40%
